Columns and labels:
ZR-75-1 Tam2 [1] = experiment: relative IC50 (midpoint of fitted logistic curve, plateau may be below 50% inhibition; CellTiter-Glo viability); higher = less potent; conditions: 4-OH-tamoxifen in medium 1 µM; 72 h
Method in brief: (§1)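 Breast cancer cell lines and their resistant derivatives were seeded into 384-well plates containing library drugs at five concentrations across a 10 000-fold range, with resistant lines kept in medium with 1 μM of the selecting drug. After 72 h at 37 °C, CellTiter-Glo viability was read on a PHERAstar and normalised to vehicle-only and positive controls. Logistic dose–response fits in the Breeze pipeline gave drug sensitivity score, relative IC50 (curve midpoint) and top-dose inhibition.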

T-47D Tam2 [2] = experiment: as above; conditions: 4-OH-tamoxifen in medium 1 µM; 72 h
Method in brief: as §1

BT-474 [3] = experiment: as above; conditions: 72 h
Method in brief: as §1

ZR-75-1 [4] = experiment: as above; conditions: 72 h
Method in brief: as §1

ZR-75-1 Tam1 [5] = experiment: as above; conditions: 4-OH-tamoxifen in medium 1 µM; 72 h
Method in brief: as §1

MCF-7 [6] = experiment: as above; conditions: 72 h
Method in brief: as §1

BT-474 Tam1 [7] = experiment: as above; conditions: 4-OH-tamoxifen in medium 1 µM; 72 h
Method in brief: as §1

BT-474 Tam2 [8] = experiment: as above; conditions: 4-OH-tamoxifen in medium 1 µM; 72 h
Method in brief: as §1

T-47D Tam1 [9] = experiment: as above; conditions: 4-OH-tamoxifen in medium 1 µM; 72 h
Method in brief: as §1

MCF-7 Tam1 [10] = experiment: as above; conditions: 4-OH-tamoxifen in medium 1 µM; 72 h
Method in brief: as §1

T-47D [11] = experiment: as above; conditions: 72 h
Method in brief: as §1

ZR-75-1 Tam2 [12] = experiment: drug sensitivity score (DSS) (DSS (dimensionless)); higher = more sensitive; extreme values may be limits of the assay; conditions: 4-OH-tamoxifen in medium 1 µM; 72 h
Method in brief: as §1

T-47D Tam2 [13] = experiment: as above; conditions: 4-OH-tamoxifen in medium 1 µM; 72 h
Method in brief: as §1

BT-474 [14] = experiment: as above; conditions: 72 h
Method in brief: as §1

ZR-75-1 [15] = experiment: as above; conditions: 72 h
Method in brief: as §1

ZR-75-1 Tam1 [16] = experiment: as above; conditions: 4-OH-tamoxifen in medium 1 µM; 72 h
Method in brief: as §1

MCF-7 [17] = experiment: as above; conditions: 72 h
Method in brief: as §1

BT-474 Tam1 [18] = experiment: as above; conditions: 4-OH-tamoxifen in medium 1 µM; 72 h
Method in brief: as §1

BT-474 Tam2 [19] = experiment: as above; conditions: 4-OH-tamoxifen in medium 1 µM; 72 h
Method in brief: as §1

T-47D Tam1 [20] = experiment: as above; conditions: 4-OH-tamoxifen in medium 1 µM; 72 h
Method in brief: as §1

MCF-7 Tam1 [21] = experiment: as above; conditions: 4-OH-tamoxifen in medium 1 µM; 72 h
Method in brief: as §1

T-47D [22] = experiment: as above; conditions: 72 h
Method in brief: as §1

| SMILES | relative IC50 (ZR-75-1 Tam2 [1]) | relative IC50 (T-47D Tam2 [2]) | relative IC50 (BT-474 [3]; 4-OH-tamoxifen in medium 0 µM) | relative IC50 (BT-474 [3]; 4-OH-tamoxifen in medium 1 µM) | relative IC50 (ZR-75-1 [4]; 4-OH-tamoxifen in medium 0 µM) | relative IC50 (ZR-75-1 [4]; 4-OH-tamoxifen in medium 1 µM) | relative IC50 (ZR-75-1 Tam1 [5]) | relative IC50 (MCF-7 [6]; 4-OH-tamoxifen in medium 0 µM) | relative IC50 (MCF-7 [6]; 4-OH-tamoxifen in medium 1 µM) | relative IC50 (BT-474 Tam1 [7]) | relative IC50 (BT-474 Tam2 [8]) | relative IC50 (T-47D Tam1 [9]) | relative IC50 (MCF-7 Tam1 [10]) | relative IC50 (T-47D [11]; 4-OH-tamoxifen in medium 0 µM) | relative IC50 (T-47D [11]; 4-OH-tamoxifen in medium 1 µM) | drug sensitivity score (ZR-75-1 Tam2 [12]) | drug sensitivity score (T-47D Tam2 [13]) | drug sensitivity score (BT-474 [14]; 4-OH-tamoxifen in medium 0 µM) | drug sensitivity score (BT-474 [14]; 4-OH-tamoxifen in medium 1 µM) | drug sensitivity score (ZR-75-1 [15]; 4-OH-tamoxifen in medium 0 µM) | drug sensitivity score (ZR-75-1 [15]; 4-OH-tamoxifen in medium 1 µM) | drug sensitivity score (ZR-75-1 Tam1 [16]) | drug sensitivity score (MCF-7 [17]; 4-OH-tamoxifen in medium 0 µM) | drug sensitivity score (MCF-7 [17]; 4-OH-tamoxifen in medium 1 µM) | drug sensitivity score (BT-474 Tam1 [18]) | drug sensitivity score (BT-474 Tam2 [19]) | drug sensitivity score (T-47D Tam1 [20]) | drug sensitivity score (MCF-7 Tam1 [21]) | drug sensitivity score (T-47D [22]; 4-OH-tamoxifen in medium 0 µM) | drug sensitivity score (T-47D [22]; 4-OH-tamoxifen in medium 1 µM) |
| --- | --- | --- | --- | --- | --- | --- | --- | --- | --- | --- | --- | --- | --- | --- | --- | --- | --- | --- | --- | --- | --- | --- | --- | --- | --- | --- | --- | --- | --- | --- |
| Cn1cc(C2=C(c3cn(C4CCN(Cc5ccccn5)CC4)c4ccccc34)C(=O)NC2=O)c2ccccc21 [Enzastaurin] | > 10 µM | > 10 µM | > 10 µM | > 10 µM | > 10 µM | > 10 µM | > 10 µM | > 10 µM | > 10 µM | > 10 µM | > 10 µM | > 10 µM | > 10 µM | > 10 µM | > 10 µM | 0 | 0 | 0 | 0 | 0 | 0 | 0 | 0 | 0 | 0 | 0 | 0 | 0 | 0 | 0 |
| Cc1ccc(C(=O)N(CCCN)[C@@H](c2oc3cc(Cl)ccc3c(=O)c2Cc2ccccc2)C(C)C)cc1 | > 0.1 µM | > 0.1 µM | > 0.1 µM | > 0.1 µM | > 0.1 µM | > 0.1 µM | > 0.1 µM | > 0.1 µM | – | > 0.1 µM | > 0.1 µM | > 0.1 µM | > 0.1 µM | > 0.1 µM | > 0.1 µM | 0 | 0 | 0 | 0 | 0 | 0 | 0 | 0 | 0.514 | 0 | 0 | 0 | 0 | 0 | 0 |
| COc1nc(N)nc2c1ncn2[C@@H]1O[C@H](CO)[C@@H](O)[C@@H]1O [Nelarabine] | > 10 µM | > 10 µM | > 10 µM | > 10 µM | – | > 10 µM | > 10 µM | – | > 10 µM | > 10 µM | > 10 µM | > 10 µM | > 10 µM | > 10 µM | > 10 µM | 0 | 0 | 0 | 0 | 0.0337 | 0 | 0 | 0.277 | 0 | 0 | 0 | 0 | 0 | 0 | 0 |
| C[C@]12C=CC(=O)C=C1CC[C@@H]1[C@@H]2C(=O)C[C@@]2(C)[C@H]1CC[C@]2(O)C(=O)CO [Prednisone] | > 10 µM | > 10 µM | > 10 µM | > 10 µM | > 10 µM | > 10 µM | > 10 µM | > 10 µM | > 10 µM | > 10 µM | > 10 µM | > 10 µM | > 10 µM | > 10 µM | > 10 µM | 0 | 0 | 0 | 0 | 0 | 0 | 0 | 0 | 0 | 0 | 0 | 0 | 0 | 0 | 0 |

— the supplement of paper PMC4932681
